Patent US11583506B1, “Cannabinoids for use in suppressing cancer stem cells” (VIVACELL BIOTECHNOLOGY ESPAÑA S.L.U., priority 2020, dated 2023)
Entries after “also recorded” stand apart in the source; their conditions may differ.

Assays:
Assay type in all cases: cell-based, human
[1] = system: HCT 116 cells; assay: tumorospheres (colonospheres) formation assay; conditions: 7 days of treatment, 1, 2.5, 5 and 10 μM, vs vehicle (DMSO)
Source text: Cancer stem cells (CSC) cultured 3-dimentionally in a serum-free medium supplemented with growth factors are able to form floating spheroids known as tumorospheres (Reynolds B A et al. Dev Biol. 1996; 175(1):1-13. doi:10.1006/dbio.1996.0090; Singh S K et al. Cancer Res. 2003; 63(18):5821-8. PMID: 14522905). These cancer cells-derived spheroids have been proven to display CSCs characteristics and recapitulate in vitro the in vivo conditions of cancer growth becoming an ideal model to evaluate anti-CSC drugs (Dieter S M et al. Cell Stem Cell. 2011; 9(4):357-65. doi: 10.1016/j.stem.2011.08.010. PMID: 21982235; Lee C H et al. Oncotarget. 2016; 7(2):1215-26. doi: 10.18632/oncotarget.6261. PMID: 26527320).
To study the CBD effect on colonospheres proliferation, a tumorospheres formation assay was performed. Briefly, human colorectal carcinoma HCT 116 cells (ATCC No. CCL-247) were trypsinized, quantified and seeded at clonal density (5 cell/μL) in ultra-low attachment surface 96-well plates (Corning-Costar. Coming, N.Y., USA) with serum free Dulbecco's Modified Eagle's Medium (DMEM)/Nutrient Mixture F-12 Ham (Sigma-Aldrich. St. Louis, Mo., USA) supplemented with 1X B-27 (Invitrogen, Carlsbad, Calif., USA), 10 ng/mL basic fibroblast growth factor (bFGF; PeproTech. London, UK), 20 ng/mL epidermal growth factor (EGF; Santa Cruz Biotechnology, Heidelberg, Germany), 1% (v/v) methylcellulose (R&D Systems. Minneapolis, Minn., USA) to prevent cell aggregation and the corresponding dose of vehicle (DMSO) or CBD concentration (1, 2.5, 5 and 10 μM). Every 2-3 days freshly supplements were added and the number and size of colonospheres were analysed by optical microscopy 1 week after seeding.

[2] = system: Notch1; assay: Notch1 expression in colonospheres by western blot; conditions: colonospheres after 7 days of treatment, 1 and 5 μM, western blot normalized to Actin
Protocol: (§1) In cancer stem cells Notch1 signalling pathway is abnormally activated (Venkatesh V et al. Stem Cell Investig. 2018 Mar. 12; 5:5. doi: 10.21037/sci.2018.02.02. PMID: 29682512). For this reason, to further analyse the anti-proliferative CBD effect on colonospheres formation, Notch1 expression was investigated by western blot analysis. Briefly, after treatments, the colonospheres were washed with PBS1X and whole-cell proteins were extracted in 50 μL of lysis buffer (50 mM Tris-HCl pH 7.5, 150 mM NaCl, 10% glycerol and 1% NP-40) supplemented with 10 mM NaF, 1 mM Na3VO4, 10 μg/mL leupeptine, 1 μg/mL pepstatin and aprotinin, and 1 μL/mL phenylmethylsulfonyl fluoride saturated. Protein concentration of the whole-cell lysates was quantified by absorbance at 595 nm using Bradford reagent compared to a bovine serum albumin standard curve. Then, forty micrograms of protein were boiled at 95° C. in Laemmli buffer and electrophoresed in 10% SDS/PAGE gels. […] After washing membranes, horseradish peroxidase-conjugated secondary antibody was added and the protein bands on the membranes were detected with ECL reagent (BioRad. Hercules, Calif., USA) by chemiluminescence system (GE Healthcare Europe GmbH. Munich, Germany).
The densitometry analysis was performed using ImageJ software, and the quantified band intensities were normalized to Actin. […]

[3] = system: Notch1; assay: Notch1 levels in HCT 116 cells by western blot; conditions: for Notch1 levels, panel of natural cannabinoids / Notch1 expression levels, concentration dependence: HCT 116 cells; for Notch1 levels, panel of natural cannabinoids: 24 hours, 10 μM; for Notch1 expression levels, concentration dependence: 24 hours, 1, 2.5, 5 and 10 μM
Protocol: In cancer stem cells Notch1 signalling pathway is abnormally activated (Venkatesh V et al. Stem Cell Investig. 2018 Mar. 12; 5:5. doi: 10.21037/sci.2018.02.02. PMID: 29682512). For this reason, to further analyse the anti-proliferative CBD effect on colonospheres formation, Notch1 expression was investigated by western blot analysis. Briefly, after treatments, the colonospheres were washed with PBS1X and whole-cell proteins were extracted in 50 μL of lysis buffer (50 mM Tris-HCl pH 7.5, 150 mM NaCl, 10% glycerol and 1% NP-40) supplemented with 10 mM NaF, 1 mM Na3VO4, 10 μg/mL leupeptine, 1 μg/mL pepstatin and aprotinin, and 1 μL/mL phenylmethylsulfonyl fluoride saturated. Protein concentration of the whole-cell lysates was quantified by absorbance at 595 nm using Bradford reagent compared to a bovine serum albumin standard curve. Then, forty micrograms of protein were boiled at 95° C. in Laemmli buffer and electrophoresed in 10% SDS/PAGE gels. Separated proteins were transferred to polyvinylidene difluoride (PVDF) membranes (20V for 30 min) and blocked in TBSIX solution containing 0.1% Tween 20 and 5% non-fat dry milk for 1 hour at room temperature. Immunodetection of specific proteins was carried out by incubation with primary antibody against human Notch1 (1:1000 dilution. Ref. #ab52627, Abcam. Cambridge, UK) and β-actin (1:10.000 dilution. Ref. #A5316, Sigma-Aldrich. St. Louis, Mo., USA) overnight at 4° C. After washing membranes, horseradish peroxidase-conjugated secondary antibody was added and the protein bands on the membranes were detected with ECL reagent (BioRad. Hercules, Calif., USA) by chemiluminescence system (GE Healthcare Europe GmbH. Munich, Germany).
The densitometry analysis was performed using ImageJ software, and the quantified band intensities were normalized to Actin. […] Thus, it can be concluded that the reduction of Notch1 levels is critical to inhibit the colonospheres proliferation.
(§2) To gain insight into the CBD effect on Notch1 pathway, a deep study using the human colorectal carcinoma HCT 116 cell line (ATCC No. CCL-247) was performed to analyse Notch1 levels. […] Moreover, the Hes5 protein level, a Notch signalling-related protein, was also analysed by western blot following the methodology explained above and using a specific primary antibody (Human anti-Hes5. 1:1000 dilution. Ref. #ab25374, Abcam. Cambridge, UK). […] To further clarify the CBD mechanism of causing a reduced Notch1 expression, HCT 116 cells were incubated with the proteasome inhibitor MG132 and/or with CBD.
A panel of natural cannabinoids CBDA, CBDV, CBC, CBCA, CBCV, CBG, CBGA, CBGV, CBGVA, CBN, THC and THCA were evaluated in its capacity to reduce Notch1 levels in human colorectal carcinoma HCT 116 cell line. CBD was purchase from Endoca BV (Netherlands). CBDA, CBDV, CBCA, CBG, CBGA, THC and […] were purchased from Phytoplant Research S.L (Cordoba, Spain). CBC, CBCV, CBGV, CBGVA and CBN were provided by the laboratory of the Professor Giovanni Appendino from the University of Piemonte Orientale (Novara, Italy).

[4] = system: Hes5; assay: Hes5 protein level in HCT 116 cells by western blot; conditions: 10 μM, 6, 16 and 24 hours
Protocol: as §1, with “Germany). […]” for “Germany).”

[5] = system: Notch1; assay: Notch1 degradation with proteasome inhibitor MG132 in HCT 116 cells; conditions: 24 hours, 10 μM CBD and/or 10 μM MG-132
Protocol: as §2

[6] = system: Notch1; assay: Notch1 expression in Hct116 cancer cell line; conditions: Hct116 (Colon)
Protocol: (§3) The effect of CBGV on Notch1 expression levels was evaluated in a panel of cancer cell lines. Human colorectal carcinoma Hct116 (No. CCL-247), human colorectal adenocarcinoma HT-29 (No. HTB-38), human brain neuroblastoma SK—N—SH (No. HTB-11), human breast adenocarcinoma MDA-MB-231 (No. HTB-26), human prostate adenocarcinoma PC3 (No. CRL-1435), human prostate carcinoma DU-145 (No. HTB-81), human lung carcinoma A549 (No. CCL-185) and human lung carcinoma H1299 (No. CRL-5803) cell lines were obtained from the American Type Culture Collection (ATCC, USA).

[7] = system: Notch1; assay: Notch1 expression in HT-29 cancer cell line; conditions: HT-29 (Colon)
Protocol: as §3

[8] = system: Notch1; assay: Notch1 expression in SK-N-SH cancer cell line; conditions: SK-N-SH (Brain)
Protocol: as §3

[9] = system: Notch1; assay: Notch1 expression in MDA-MB-231 cancer cell line; conditions: MDA-MB-231 (Breast)
Protocol: as §3

[10] = system: Notch1; assay: Notch1 expression in PC3 cancer cell line; conditions: PC3 (Prostate)
Protocol: as §3

[11] = system: Notch1; assay: Notch1 expression in DU145 cancer cell line; conditions: DU145 (Prostate)
Protocol: as §3

[12] = system: Notch1; assay: Notch1 expression in A549 cancer cell line; conditions: A549 (Lung)
Protocol: as §3

[13] = system: Notch1; assay: Notch1 expression in H1299 cancer cell line; conditions: H1299 (Lung)
Protocol: as §3

Compound	colonospheres formation [1]	Notch1 levels in colonospheres [2]	Notch1 protein levels in HCT 116 cells (dose and time dependence) ([3]; 1, 2.5, 5 and 10 μM for 24 hours, 10 μM at 6, 16 and 24 hours)	Notch1 levels, panel of natural cannabinoids [3]	Hes5 expression levels [4]	Notch1 degradation through the proteasome [5]	Notch1 expression levels, concentration dependence [3]	Inhibition of Notch1 expression in cancer cells [6]	Inhibition of Notch1 expression in cancer cells [7]	Inhibition of Notch1 expression in cancer cells [8]	Inhibition of Notch1 expression in cancer cells [9]	Inhibition of Notch1 expression in cancer cells [10]	Inhibition of Notch1 expression in cancer cells [11]	Inhibition of Notch1 expression in cancer cells [12]	Inhibition of Notch1 expression in cancer cells [13]
C=C(C)[C@@H]1CCC(C)=C[C@H]1c1c(O)cc(CCCCC)cc1O [CBD, cannabidiol]	significantly reduces the colonospheres formation in a clear dose-dependent manner	clearly diminished in a dose-dependent manner; also recorded: reduces Notch1 expression levels in colonospheres	reduces Notch1 protein levels in HCT 166 cells in a dose- and time-dependent manner; also recorded: reduces Notch1 expression levels in colonospheres and HCT 116 cells	clearly diminished Notch1 levels; also recorded: reduce Notch1 expression levels	clearly reduces Hes5 expression levels in HCT 116 cells in a time-dependent manner; also recorded: reduces the expression of Hes5	induces Notch1 degradation by the proteasomal degradation machinery; also recorded: induces Notch1 degradation through the proteasome	–	–	–	–	–	–	–	–	–
C=C(C)[C@@H]1CCC(C)=C[C@H]1c1c(O)cc(CCC)cc1O [CBDV, cannabidivarin]	potent dose-dependent anti-proliferative effect of colonospheres formation; also recorded: inhibit colonospheres formation	–	–	clearly diminished Notch1 levels; also recorded: reduce Notch1 expression levels	–	–	reduce Notch1 expression levels in a concentration-dependent manner	–	–	–	–	–	–	–	–
CCCc1cc(O)c(C/C=C(\C)CCC=C(C)C)c(O)c1 [CBGV, cannabigerovarin]	potent dose-dependent anti-proliferative effect of colonospheres formation; also recorded: inhibit colonospheres formation	–	–	clearly diminished Notch1 levels; also recorded: reduce Notch1 expression levels	–	–	reduce Notch1 expression levels in a concentration-dependent manner	Yes	Yes	Yes	Yes	Yes	Yes	Yes	Yes
